Experimental data: US9364480B2, “Pharmaceutical composition for preventing or treating cancer, containing enoblock as active ingredient” (GWANGJU INSTITUTE OF SCIENCE AND TECHNOLOGY, priority 2012, dated 2016)
“Also recorded” adds a separate entry of the source.

Assays:
HCT116 cancer cells [1] = test: Cancer cell migration (transwell inserts, crystal violet); format: cell-based; settings: HCT116, normoxia
Experimental: (§1) FIG. 7. […] (b) Microscopic images of crystal violet stained HCT116 cells invaded onto the transwell inserts (scale bar=100 μm). […] (d) Microscopic images of crystal violet stained HCT116 cells migrated onto the transwell inserts (scale bar=100 μm). […] Cells were treated with 10 nM taxol and 10 nM vincristine, with or without 10 μM ENOblock. Error=SD; *=P<0.05 between the groups indicated on the graph. […] For the AKT Western blot, cells were treated with ENOblock for 24 h; for the Bcl-Xl Western blot, cells were treated with ENOblock for 48 h.

[2] = test system: PEPCK expression in adult zebrafish liver; test: PEPCK expression in adult zebrafish liver; settings: 10 μM, 3 h
[3] = test system: PEPCK expression in HEK cells; test: PEPCK expression in kidney cells; format: cell-based; settings: 10 μM, 24 h
Text: FIG. 10. […] Error=SD; *=P<0.05 compared to the no drug (DMSO-treated) group. […] Error=SD; *=P<0.05 for reduced PEPCK expression compared to the no drug (DMSO-treated) group.

HCT116 cancer cells [4] = test: Sensitivity to antitubulin chemotherapeutics taxol and vincristine; format: cell-based; settings: 10 nM taxol or 10 nM vincristine with or without 10 μM ENOblock
Experimental: as §1

Huh7 hepatocytes = test: Glucose uptake with fluorescent glucose probe 2-NBDG, hepatocytes; format: cell-based; settings: 10 μM, 24 h
[5] = molecular target: T1, Enolase purified from rabbit muscle (Oryctolagus cuniculus, UniProt P25704); test: Enolase activity assay; format: biochemical
T1 construct: Enolase purified from rabbit muscle was purchased from Sigma-Aldrich; purchased Sigma-Aldrich; host or cells: rabbit muscle
Experimental: FIG. 4. […] (a) Affinity chromatography study for ENOblock in HCT116 cancer cells. […] (b) Sequence identification for the enolase monomer subunit. […] Mascot scores above 100 were deemed to be significant. […] Twenty micrograms of cell lysate from YD-10B oral cancer cells or Huh7 hepatocytes were used as positive controls. […] As a positive control, ENOblock affinity matrix was incubated with 200 μg of HCT 116 cell lysate; 50 μg cell lysate from HCT116 cancer cells was used as a positive control for the enolase antibody.
Enolase purified from rabbit muscle was purchased from Sigma-Aldrich. A single unit of enolase is defined as the amount of enzyme that produces 1 μmol of phosphoenol pyruvate from phospho-D-glycerate/min in standard assay.^52 Enolase activity assay was measured at 37° C. by incubating pure enolase (3-9 U) in a buffer containing 50 mM imidazole-HCl (pH 6.8)(JUNSEI), 2.0 mM MgSO4 (JUNSEI) and 400 mM KCl (JUNSEI) in the absence or presence of ENOblock or NaF (Sigma). The reaction was initiated by adding 1 μmol of 2-phospho-D-glycerate, and the OD was measured after 10 min of reaction time with a spectrophometer at 240 nm.

macrophages [6] = test: Foam cell formation from macrophages treated with oleic acid; format: cell-based; settings: 10 μM
monocytes = test: Monocyte differentiation into macrophages (attached cell count, PMA); format: cell-based; settings: PMA treated; 10 μM
Experimental: (§2) FIG. 14. […] Treatment with 3 mM H2O2 for 48 h was used as a positive control.

zebrafish larvae = test: Measurement of glucose uptake in zebrafish (2-NBDG); format: in vivo; set-up: 2-NBDG signal in lysed larvae (fluorescent plate reader): dose or concentration left out as unconfirmed
Experimental: FIG. 12. […] (a) Schematic of our approach to measure the effect of ENOblock treatment on […] in zebrafish.
At 72 hpf, larvae were placed into a 96-well plate (6 eggs/well in 200 μL E3 water supplemented with 0.2 mM 2-phenylthiourea; Sigma). Drug of interest was added for […]. The solution was then replaced with E3 water supplemented with 600 μM 2-NBDG and incubated for 3 h. The larva were washed with E3 water and anesthetized with 0.02% tricaine-supplemented E3 water. One larva was then placed on a chamber slide, containing 3% methylcellulose in E3 water, for fluorescent microscopy (Leica DM2500 microscope equipped with a DFC425 C digital camera). Images were captured at 50× magnification. The remaining 5 larvae where lysed with 120 μL of CelLytic M solution (Sigma-Aldrich) and sonication (4° C., 10″/5″ pulse, 10 min). Lysed larvae were centrifuged at 10000 rpm for 10 min. 100 μL of the supernatant was transferred to a 96-well plate and fluorescence was measured with a fluorescent microplate reader (SpectraMAX Gemini XS, Molecular Devices; λex=466 nm […]).

macrophages [7] = test: Macrophage cytotoxicity (MTT assay); format: cell-based
Experimental: as §2

T1 sequence (P25704 whole entry): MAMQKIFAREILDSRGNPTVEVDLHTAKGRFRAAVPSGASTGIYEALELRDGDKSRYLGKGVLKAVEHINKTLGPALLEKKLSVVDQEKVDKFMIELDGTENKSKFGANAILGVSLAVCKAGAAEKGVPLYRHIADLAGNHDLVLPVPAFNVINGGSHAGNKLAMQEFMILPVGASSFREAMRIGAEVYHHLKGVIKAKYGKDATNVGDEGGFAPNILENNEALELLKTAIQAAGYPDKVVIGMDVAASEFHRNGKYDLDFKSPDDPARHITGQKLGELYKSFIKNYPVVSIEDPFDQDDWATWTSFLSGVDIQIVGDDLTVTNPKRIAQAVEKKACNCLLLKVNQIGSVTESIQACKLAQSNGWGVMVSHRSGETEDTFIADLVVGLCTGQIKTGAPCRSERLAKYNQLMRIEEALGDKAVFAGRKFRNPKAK

## NCCOCCOCCNC(=O)Cc1ccc(Nc2nc(NCc3ccc(F)cc3)nc(NCC3CCCCC3)n2)cc1 [ENOblock]
HCT116 cancer cells [1]
  cancer cell migration: inhibited cell migration dose-dependently
  inhibition of cell migration compared with LY294002: more effective than LY294002 at inhibiting cell migration
[2]
  hepatic PEPCK expression in vivo: inhibited PEPCK expression in adult zebrafish liver
[3]
  PEPCK expression: inhibited expression of PEPCK
HCT116 cancer cells [4]
  sensitivity to taxol and vincristine (cytotoxicity): increased sensitivity to the antitubulin chemotherapeutics taxol and vincristine
Huh7 hepatocytes
  glucose uptake (2-NBDG): induced glucose uptake
[5]; OD 240 nm, 37° C., 10 min
  inhibition of purified enolase activity: dose-dependently inhibited the activity of purified enolase; also recorded: enolase activity can be inhibited by ENOblock dose-dependently
[5]; purified enolase
  enolase inhibitory concentration compared with sodium fluoride (NaF): markedly lower concentration than the wellknown enolase inhibitor
  treatment concentration reducing enolase activity to the level approximated with 1 mM NaF: 2.5 µM
Macrophages [6]
  foam cell formation (Oil Red O staining, microscopy): inhibited foam cell formation
  foam cell formation (count of cells showing lipid accumulation): inhibited foam cell formation
monocytes
  monocyte differentiation into macrophages (number of attached cells): inhibited differentiation into macrophages
Zebrafish larvae; 10 μM, 4 h
  glucose uptake in larvae (2-NBDG fluorescence microscopy): increased glucose uptake in the zebrafish larvae
Zebrafish larvae; 72 hpf larvae, 10 μM, 4 h, vs 2-NBDG alone
  2-NBDG fluorescence signal intensity in the eye: induced significantly greater fluorescent tagged glucose uptake in the zebrafish eye
Zebrafish larvae; 72 hpf zebrafish
  2-NBDG signal in lysed larvae (fluorescent plate reader): induced glucose uptake
Macrophages [7]
  cytotoxicity to macrophages (MTT absorbance 570 nm): not due to cytotoxicity
